In assay [1] the test system is Streptococcus sp. 'group A'. Description: Streptococcus pyogenes SK(-)GAS viability under kanamycin – luminescence, BacTiterGlo, confirmation, counter-screen for streptokinase expression inhibitor project, dose response (AID 1900). Type of assay: functional, organism-based. Background: Counterscreens check selectivity or assay interference.
In another assay the target is T1, Streptokinase A (Streptococcus pyogenes serotype M1, UniProt P10520).
T1 sequence (P10520 whole entry): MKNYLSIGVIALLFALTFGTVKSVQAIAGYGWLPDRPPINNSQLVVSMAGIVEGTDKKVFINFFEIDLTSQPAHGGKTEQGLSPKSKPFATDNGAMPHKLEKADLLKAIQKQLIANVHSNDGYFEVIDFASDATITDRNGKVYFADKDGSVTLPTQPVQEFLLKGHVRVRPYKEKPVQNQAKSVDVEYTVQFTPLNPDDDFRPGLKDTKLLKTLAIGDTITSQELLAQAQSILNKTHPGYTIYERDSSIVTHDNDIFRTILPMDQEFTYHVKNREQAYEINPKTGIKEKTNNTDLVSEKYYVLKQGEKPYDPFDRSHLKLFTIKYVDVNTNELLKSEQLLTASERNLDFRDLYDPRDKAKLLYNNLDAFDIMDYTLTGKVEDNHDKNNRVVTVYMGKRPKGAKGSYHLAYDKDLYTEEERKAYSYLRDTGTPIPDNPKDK
Nature of the assay: viability-normalized secreted streptokinase activity reduction – plasminogen activation absorbance, OD405, dose response (AID 1914).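 Note: secreted streptokinase activity via plasminogen activation per viability signal from cell pellet.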 It is filed as functional, Streptococcus pyogenes M1 GAS.

For a further assay, the system named is Streptococcus. Description: GAS UMAA2166 growth inhibition – luminescence, BacTiterGlo, counter-screen for streptokinase expression inhibitor project, dose response (AID 1915).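 Note: potency for reduction of bacterial viability or growth.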 Type of assay: functional, organism-based.
Assay [2] is described as follows: Luminescence Cell-Based Dose Retest to Confirm Inhibitors of Cancer Stem Cells. [Related pubchem assays (depositor defined):AID2717, AID2721]. It is filed as functional. As to conditions: Homo sapiens.
Assay [3] in a line: reduced cellular PGC1a acetyl-lysine signal – cell-based, cherry-picked samples, dose response (AID 720514).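 Note: potency may reflect raised or lowered acetylation signal.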 It is filed as functional.
Another assay addresses T2, Coagulation factor XII (Homo sapiens, UniProt P00748).
T2 sequence (P00748 whole entry): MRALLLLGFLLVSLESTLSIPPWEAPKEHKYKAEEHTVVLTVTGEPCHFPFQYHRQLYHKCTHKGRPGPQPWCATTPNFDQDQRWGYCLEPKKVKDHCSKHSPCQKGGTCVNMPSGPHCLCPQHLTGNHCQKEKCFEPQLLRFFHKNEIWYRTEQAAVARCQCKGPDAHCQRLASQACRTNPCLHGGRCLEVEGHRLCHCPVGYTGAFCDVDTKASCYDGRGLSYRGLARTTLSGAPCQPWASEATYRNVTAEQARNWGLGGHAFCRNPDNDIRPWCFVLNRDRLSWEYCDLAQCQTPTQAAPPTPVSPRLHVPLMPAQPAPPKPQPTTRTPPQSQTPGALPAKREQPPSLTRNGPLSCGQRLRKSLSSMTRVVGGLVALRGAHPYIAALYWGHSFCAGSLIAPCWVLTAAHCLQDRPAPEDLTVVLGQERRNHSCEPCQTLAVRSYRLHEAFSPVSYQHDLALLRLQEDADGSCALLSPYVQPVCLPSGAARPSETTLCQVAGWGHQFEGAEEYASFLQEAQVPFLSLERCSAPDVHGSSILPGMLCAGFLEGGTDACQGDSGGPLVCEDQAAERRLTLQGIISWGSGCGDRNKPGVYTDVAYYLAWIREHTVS
It is filed as functional.

Assay [4] in a line: HIV-1 Vif–A3G interaction blockers – biochemical, TR-FRET, GST-Vif 1-94, biotin-A3G peptide, dose response retest, primary screen (AID 1117319).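 Note: TR-FRET signal of purified GST-Vif binding a biotinylated A3G peptide; inhibitors lower the FRET signal by blocking Vif and A3G binding.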 Type of assay: functional. For orientation: TR-FRET usually uses a lanthanide donor and a delayed reading to cut background.
The target in assay [5] is Voltage-dependent T-type calcium channel subunit alpha-1H (Homo sapiens, UniProt O95180). It is filed as functional.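 Note: channel activity triggered by adding a high calcium stimulation buffer.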
Voltage-dependent T-type calcium channel subunit alpha-1H, sequence (O95180 whole entry): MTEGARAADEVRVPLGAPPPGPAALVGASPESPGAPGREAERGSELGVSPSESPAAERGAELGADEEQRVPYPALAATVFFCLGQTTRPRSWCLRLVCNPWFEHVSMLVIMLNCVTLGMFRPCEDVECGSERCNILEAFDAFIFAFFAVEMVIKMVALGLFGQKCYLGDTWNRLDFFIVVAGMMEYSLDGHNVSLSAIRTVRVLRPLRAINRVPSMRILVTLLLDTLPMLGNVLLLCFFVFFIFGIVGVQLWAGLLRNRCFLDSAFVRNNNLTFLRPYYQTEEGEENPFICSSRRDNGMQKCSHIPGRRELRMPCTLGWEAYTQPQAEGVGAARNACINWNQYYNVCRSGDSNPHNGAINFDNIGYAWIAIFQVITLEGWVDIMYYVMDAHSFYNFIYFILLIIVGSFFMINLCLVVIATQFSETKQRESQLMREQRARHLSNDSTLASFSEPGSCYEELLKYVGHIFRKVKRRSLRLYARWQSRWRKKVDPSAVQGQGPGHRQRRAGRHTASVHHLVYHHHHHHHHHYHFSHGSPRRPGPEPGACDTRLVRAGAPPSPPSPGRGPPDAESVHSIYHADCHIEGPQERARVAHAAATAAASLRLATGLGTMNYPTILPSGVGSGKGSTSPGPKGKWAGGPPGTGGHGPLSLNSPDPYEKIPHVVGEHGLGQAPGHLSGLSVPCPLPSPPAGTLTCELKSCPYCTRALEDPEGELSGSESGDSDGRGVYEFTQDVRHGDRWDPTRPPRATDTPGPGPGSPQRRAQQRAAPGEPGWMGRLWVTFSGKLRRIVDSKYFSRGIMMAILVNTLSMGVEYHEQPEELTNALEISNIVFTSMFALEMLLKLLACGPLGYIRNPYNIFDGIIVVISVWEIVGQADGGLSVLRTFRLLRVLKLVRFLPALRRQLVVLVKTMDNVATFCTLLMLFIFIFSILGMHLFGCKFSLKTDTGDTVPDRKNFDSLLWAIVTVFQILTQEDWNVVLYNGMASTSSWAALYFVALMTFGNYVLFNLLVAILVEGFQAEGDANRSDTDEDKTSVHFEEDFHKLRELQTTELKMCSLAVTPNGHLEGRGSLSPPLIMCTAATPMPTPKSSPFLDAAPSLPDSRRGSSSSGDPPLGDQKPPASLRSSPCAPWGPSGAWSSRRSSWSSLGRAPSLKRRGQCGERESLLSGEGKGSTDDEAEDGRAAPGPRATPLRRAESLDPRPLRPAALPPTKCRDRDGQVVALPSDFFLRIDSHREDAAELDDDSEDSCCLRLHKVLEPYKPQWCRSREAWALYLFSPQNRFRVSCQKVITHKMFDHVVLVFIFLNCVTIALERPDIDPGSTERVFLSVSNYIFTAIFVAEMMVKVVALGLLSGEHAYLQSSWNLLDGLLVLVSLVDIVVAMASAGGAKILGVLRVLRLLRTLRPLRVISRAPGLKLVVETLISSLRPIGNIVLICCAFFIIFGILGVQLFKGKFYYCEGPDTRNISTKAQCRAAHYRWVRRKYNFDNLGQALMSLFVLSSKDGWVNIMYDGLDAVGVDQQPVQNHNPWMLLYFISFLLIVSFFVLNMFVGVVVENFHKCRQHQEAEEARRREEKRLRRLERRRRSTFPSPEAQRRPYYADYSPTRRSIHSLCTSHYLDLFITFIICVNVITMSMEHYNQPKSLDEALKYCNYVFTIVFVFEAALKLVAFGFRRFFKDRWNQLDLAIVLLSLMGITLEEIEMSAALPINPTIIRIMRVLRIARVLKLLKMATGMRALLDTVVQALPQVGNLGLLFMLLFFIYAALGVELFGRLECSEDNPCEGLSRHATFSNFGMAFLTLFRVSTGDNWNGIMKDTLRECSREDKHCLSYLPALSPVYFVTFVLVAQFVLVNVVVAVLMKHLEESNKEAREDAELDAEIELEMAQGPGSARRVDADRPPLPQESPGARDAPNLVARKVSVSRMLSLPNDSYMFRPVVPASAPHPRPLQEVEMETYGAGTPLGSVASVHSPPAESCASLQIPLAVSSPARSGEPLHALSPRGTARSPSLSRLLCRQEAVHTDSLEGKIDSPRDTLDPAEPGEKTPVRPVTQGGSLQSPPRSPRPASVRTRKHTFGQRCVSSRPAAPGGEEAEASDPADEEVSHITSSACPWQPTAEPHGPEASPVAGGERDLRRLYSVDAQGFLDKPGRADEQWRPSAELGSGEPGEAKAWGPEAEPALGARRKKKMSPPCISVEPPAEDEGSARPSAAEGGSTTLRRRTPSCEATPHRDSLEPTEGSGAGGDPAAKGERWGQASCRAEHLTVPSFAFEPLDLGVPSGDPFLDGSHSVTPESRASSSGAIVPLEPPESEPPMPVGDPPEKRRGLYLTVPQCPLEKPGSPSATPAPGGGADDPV
For a further assay, the target named is T3, Protein skinhead-1 (Caenorhabditis elegans, UniProt P34707).
T3 sequence (P34707 whole entry): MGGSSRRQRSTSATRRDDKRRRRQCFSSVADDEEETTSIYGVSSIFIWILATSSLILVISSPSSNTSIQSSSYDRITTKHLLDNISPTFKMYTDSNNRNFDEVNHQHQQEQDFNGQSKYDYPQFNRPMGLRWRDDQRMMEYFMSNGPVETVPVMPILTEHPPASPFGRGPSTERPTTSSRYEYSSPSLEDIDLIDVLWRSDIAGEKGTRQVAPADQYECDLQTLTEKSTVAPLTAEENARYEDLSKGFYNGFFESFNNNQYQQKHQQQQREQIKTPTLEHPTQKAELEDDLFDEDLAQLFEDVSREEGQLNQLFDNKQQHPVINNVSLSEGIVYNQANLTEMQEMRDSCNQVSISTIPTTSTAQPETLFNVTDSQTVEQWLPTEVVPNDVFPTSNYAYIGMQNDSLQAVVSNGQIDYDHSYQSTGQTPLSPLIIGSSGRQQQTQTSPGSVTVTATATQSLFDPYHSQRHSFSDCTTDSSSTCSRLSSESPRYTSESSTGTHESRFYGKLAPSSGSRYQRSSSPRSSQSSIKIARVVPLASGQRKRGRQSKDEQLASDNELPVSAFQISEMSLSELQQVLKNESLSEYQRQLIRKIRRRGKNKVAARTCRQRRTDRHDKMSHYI
Type of assay: functional.

Assay [6] can be described thus: general mammalian cell viability loss – inhibitor set, cherry-pick, set 2, cytotoxicity control for miR-122 modulator project, dose response (AID 720697). It is filed as functional, cell-based.
Assay [7] is described as follows: cells. Type of assay: functional, cell-based.
Assay [8] is described as follows: cells. It is filed as functional, cell-based. The source holds these as a separate data set.
Assay [9] has as its target Disintegrin and metalloproteinase domain-containing protein 17 (Homo sapiens, UniProt P78536). Description: exosite inhibitors of ADAM17, dose response, biochemical (AID 743260).
The nature of assay [10]: inhibition of ADAM10 peptide cleavage – biochemical, FRET peptide substrate, recombinant human ADAM10, selectivity assay for ADAM17 exosite inhibitor project, dose response (AID 743259).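 Note: ADAM10 enzyme cleaving a FRET peptide substrate.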
The target in assay [11] is T4, Methionyl-tRNA synthetase, putative (Trypanosoma brucei brucei, UniProt Q38C91).
T4 sequence (Q38C91 whole entry): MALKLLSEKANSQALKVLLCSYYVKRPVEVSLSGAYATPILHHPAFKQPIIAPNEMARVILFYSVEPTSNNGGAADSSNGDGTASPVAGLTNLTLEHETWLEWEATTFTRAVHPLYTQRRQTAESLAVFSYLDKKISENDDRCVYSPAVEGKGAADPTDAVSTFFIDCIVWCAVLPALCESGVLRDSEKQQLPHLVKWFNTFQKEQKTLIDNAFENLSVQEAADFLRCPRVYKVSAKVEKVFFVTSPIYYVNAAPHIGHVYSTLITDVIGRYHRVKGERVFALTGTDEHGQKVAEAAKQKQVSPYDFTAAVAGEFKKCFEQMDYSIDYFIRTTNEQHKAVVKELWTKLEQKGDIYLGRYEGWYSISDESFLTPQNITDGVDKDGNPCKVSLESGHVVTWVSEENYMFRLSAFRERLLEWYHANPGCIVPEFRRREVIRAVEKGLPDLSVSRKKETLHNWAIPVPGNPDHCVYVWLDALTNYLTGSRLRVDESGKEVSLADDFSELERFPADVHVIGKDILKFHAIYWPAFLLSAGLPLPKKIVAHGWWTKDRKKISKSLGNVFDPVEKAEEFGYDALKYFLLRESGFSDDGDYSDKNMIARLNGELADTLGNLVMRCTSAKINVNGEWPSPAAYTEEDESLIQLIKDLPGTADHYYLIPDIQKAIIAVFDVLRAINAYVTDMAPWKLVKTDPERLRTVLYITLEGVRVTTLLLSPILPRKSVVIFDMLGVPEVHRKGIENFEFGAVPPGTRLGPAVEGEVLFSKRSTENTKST
It is filed as functional, Trypanosoma brucei brucei strain 927/4 GUTat10.1.

Assay [12] is described as follows: Counterscreen for inhibitors of Trypanosoma brucei methionyl tRNA synthetase (MetRS): Luminescence-based cell-based high throughput dose response assay to identify compounds that are cytotoxic to Jurkat human T lymphocyte cells. It is filed as functional.
The target of assay [13] is T4, Methionyl-tRNA synthetase, putative. It is filed as functional, Trypanosoma brucei brucei strain 927/4 GUTat10.1. This is another data set of the same source.
Assay [14] can be described thus: cells. It is filed as functional.
Assay [15] deals with T5, Rac GTPase-activating protein 1 (Homo sapiens, UniProt Q9H0H5).
T5 sequence (Q9H0H5 whole entry): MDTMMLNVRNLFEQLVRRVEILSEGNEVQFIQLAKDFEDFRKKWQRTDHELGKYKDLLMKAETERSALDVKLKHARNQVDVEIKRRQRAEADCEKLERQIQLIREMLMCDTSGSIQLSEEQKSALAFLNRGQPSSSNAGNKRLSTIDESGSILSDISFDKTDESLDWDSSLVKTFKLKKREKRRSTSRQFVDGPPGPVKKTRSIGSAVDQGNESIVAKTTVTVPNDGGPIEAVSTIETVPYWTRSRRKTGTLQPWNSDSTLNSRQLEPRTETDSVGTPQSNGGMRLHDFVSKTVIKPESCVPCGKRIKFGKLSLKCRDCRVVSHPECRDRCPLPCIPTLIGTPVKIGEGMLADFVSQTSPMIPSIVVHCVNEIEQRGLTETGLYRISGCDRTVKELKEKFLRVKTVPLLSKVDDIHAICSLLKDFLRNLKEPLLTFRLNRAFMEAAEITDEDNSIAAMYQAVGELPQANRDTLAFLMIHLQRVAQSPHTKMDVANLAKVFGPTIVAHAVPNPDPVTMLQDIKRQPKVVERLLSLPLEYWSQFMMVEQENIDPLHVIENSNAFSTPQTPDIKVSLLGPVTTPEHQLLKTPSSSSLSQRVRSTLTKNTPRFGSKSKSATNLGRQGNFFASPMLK
Description: blockers of MgcRacGAP-driven Rac1 GTP hydrolysis – biochemical, ADP Hunter fluorescence, primary and confirmatory, confirmation (AID 624330). It is filed as functional.

Active and inactive are the calls of the source.

Disintegrin and metalloproteinase domain-containing protein 17, sequence (P78536 whole entry, the tested form may be a part): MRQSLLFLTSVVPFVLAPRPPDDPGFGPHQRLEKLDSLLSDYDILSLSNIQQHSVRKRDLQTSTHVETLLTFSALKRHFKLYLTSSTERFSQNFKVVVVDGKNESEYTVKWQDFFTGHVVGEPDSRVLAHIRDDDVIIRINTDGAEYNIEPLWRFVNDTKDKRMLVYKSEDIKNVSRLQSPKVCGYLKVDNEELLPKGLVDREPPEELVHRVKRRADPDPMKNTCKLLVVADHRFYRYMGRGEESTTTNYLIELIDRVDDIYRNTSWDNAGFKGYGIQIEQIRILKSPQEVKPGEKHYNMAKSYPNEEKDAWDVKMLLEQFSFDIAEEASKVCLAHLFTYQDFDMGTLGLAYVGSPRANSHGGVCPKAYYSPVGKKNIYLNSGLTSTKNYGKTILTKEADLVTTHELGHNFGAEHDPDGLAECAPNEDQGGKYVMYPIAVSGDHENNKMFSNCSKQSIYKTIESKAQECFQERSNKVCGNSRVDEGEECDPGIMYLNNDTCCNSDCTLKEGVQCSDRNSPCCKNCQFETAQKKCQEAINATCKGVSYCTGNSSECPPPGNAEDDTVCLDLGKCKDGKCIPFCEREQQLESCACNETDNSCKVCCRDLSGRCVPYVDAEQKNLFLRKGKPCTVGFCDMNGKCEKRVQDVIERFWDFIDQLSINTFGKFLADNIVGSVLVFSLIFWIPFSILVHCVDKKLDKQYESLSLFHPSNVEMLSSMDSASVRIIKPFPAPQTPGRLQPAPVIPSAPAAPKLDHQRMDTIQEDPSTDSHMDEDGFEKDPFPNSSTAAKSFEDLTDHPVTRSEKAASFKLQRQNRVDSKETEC

What is called EC50 is the midpoint of the concentration-response curve. A word on the AC50: it is the concentration giving half of the maximal activity seen. As for `O=C(Nc1ccccc1)Nc1cc(Cl)cc(Cl)c1`, the EC50 in [1] is 10.6 µM (active); on Streptokinase A it was 16.8 µM (active); in the assay with Streptococcus, 48.6 µM (active). In addition, the AC50 was 4.3 µM (active) in assay [2] and 17.2 µM (active) in assay [3].
As a reminder, the IC50 is the concentration at which inhibition is half-maximal. As for `Cc1cc(-n2ccnc2)n2c(nc3ccccc32)c1C#N`, the IC50 at Coagulation factor XII was > 50 µM (inactive); in assay [4] it was > 100 µM (active).
Regarding `O=C(Nc1ccc(Cl)c(C(F)(F)F)c1)c1ccco1`, in assay [5], the EC50 is 10.6 µM (active). In addition, at Protein skinhead-1, the IC50 is 45 µM (active). Moreover, in assay [6], the AC50 is 4.01 µM (active).
For the compound `Cn1nnnc1SCC(=O)NCc1cccc(C(=O)O)c1`, the concentration at half-maximal activity (AC50) in assay [3] is 10.5 µM (active).
As for `CCOC(=O)C1CCCN(C(=O)c2ccc(CS(=O)(=O)c3ccc(Br)cc3)o2)C1` (configuration not stated), the half-inhibitory concentration (IC50) in assay [4] is > 100 µM (active).
In the case of `CC(=O)Nc1ccc(NC(=O)Nc2ccccc2)cc1`, the IC50 in the assay “cells [7]” was > 29.9 µM (inactive). The EC50 in the assay “cells [8]” was > 29.9 µM (inactive).
Turning to `CCCCc1cc(=O)oc2cc(C)cc(OC(C)C(=O)O)c12` (configuration not stated), the AC50 in assay [6] was 1.08 µM (active).
For `CN(C)S(=O)(=O)c1cccc(NC(=O)COC(=O)c2cccc(S(=O)(=O)N3CCc4ccccc4C3)c2)c1`, the IC50 in [9] and in assay [10] was > 69.5 µM (inactive) in each case.
On to `O=C1N(Cc2cccnc2)C[C@@H]2C[C@@H](c3ccc4nsnc4c3)N3CCC[C@@]123`, for which the IC50 in [4] was > 100 µM (active).
Turning to `Cc1cccc(N2CCN(C(=O)c3ccc(C[S+]([O-])Cc4ccc(Cl)cc4)o3)CC2)c1C` (configuration not stated), the results for the IC50 in assay [9] and in assay [10] were > 69.5 µM (inactive) and > 7.72 µM (active), respectively.
On to `Cc1c(NS(=O)(=O)c2cc(C(=O)NCc3cccc(Cl)c3)ccc2Cl)c(=O)n(-c2ccccc2)n1C`, for which the values for the IC50 in [11], in assay [12] and in [13] were 94.9 µM (inactive), 83.3 µM (inactive) and 26.8 µM (inactive), respectively.
With `Cn1ccnc1Sc1ccc(/C=N/NC(=O)c2ccccc2O)cc1[N+](=O)[O-]`, in [4], the IC50 was > 100 µM (active).
In the case of `O=C(C[C@@H]1C=C[C@H](NC(=O)Cc2ccccn2)[C@@H](CO)O1)NCCc1ccccc1`, in the assay “cells [7]”, the IC50 was > 29.9 µM (inactive). Also, in the assay “cells [8]”, the EC50 was > 29.9 µM (inactive).
As to `CO[C@H]1CN(C)C(=O)c2cc(NC(=O)c3ccccc3F)ccc2OC[C@@H](C)N(C)C[C@@H]1C`, in assay [6], the AC50 was 10.6 µM (active).
As to `O=C(CSc1nnc(COc2ccccc2)n1-c1ccc(Cl)cc1)Nc1ccccc1-c1ccccc1`, the IC50 in assay [9] and in assay [10] was > 69.5 µM (inactive) in each case.
With `O=C(C/C=N\OCc1ccc([N+](=O)[O-])cc1)Nc1ccc(Cl)cc1`, the IC50 is 25.5 µM (active) in “cells [14]”, 2.56 µM (active) in [11], 83.3 µM (inactive) in assay [12] and 1.73 µM (active) in assay [13].
Regarding `O=C(CC(=O)Nc1ccc(Cl)c(Cl)c1)N/N=C/c1ccc(O)cc1`, the IC50 in assay [11] was 25.3 µM (inactive); in [12], 83.3 µM (inactive); in [13] it was 43.9 µM (inactive); in assay [15], 74 µM (active).

(Values after ChEMBL document CHEMBL1201862, “PubChem BioAssay data set” (2004).)
